Calls of active or inactive are those of the source. The calls are words filed in the database; no cut-off is given here.
How the values were obtained:
[1] = tested on: Rattus norvegicus; test: Toxicity in rat assessed as mortality at high dose, po for 7 days; format: organism-based; conditions: in vivo, 168 h
[2] = target: T1, Histamine H4 receptor (Homo sapiens, UniProt Q9H3N8); test: Displacement of [3H]-histamine from full length human H4R expressed in HEK293 cells; format: cell-based
[3] = target: T1, Histamine H4 receptor; test: Antagonist activity at full length human H4R expressed in HEK293 cells assessed as reversal of forskolin-induced cAMP production by CRE-beta-lactamase reporter gene assay; format: functional, cell-based
[4] = Metabolic stability in rat liver microsomes; format: ADME, Microsome; conditions: read-out: Stability
[5] = Oral bioavailability in dog at 10 mg/kg; format: ADME, organism-based, Canis lupus familiaris; conditions: in vivo
[6] = Blood clearance in dog at 1 mg/kg, iv and 10 mg/kg, po; format: ADME, organism-based, Canis lupus familiaris
[7] = Plasma protein binding in human; format: ADME, cell-free; conditions: read-out: PPB (converted)
[8] = Lipophilicity, log D of the compound; format: physicochemical; conditions: octanol/water
[9] = Ratio of drug level in blood to plasma in rat at 1 mg/kg, iv and 5 mg/kg, po; format: ADME, organism-based
[10] = tested on: HEK-293T; test: Antagonist activity at dog H4R expressed in HEK293T cells assessed as reversal of forskolin-induced cAMP production by CRE-beta-lactamase reporter gene assay; format: functional, cell-based; conditions: Canis lupus familiaris
[11] = target: T2, Histamine H4 receptor (Cavia porcellus, UniProt Q91ZY3); test: Displacement of [3H]-histamine from guinea pig H4R expressed in HEK293T cells; format: cell-based, HEK-293T
T2 sequence (Q91ZY3 whole entry): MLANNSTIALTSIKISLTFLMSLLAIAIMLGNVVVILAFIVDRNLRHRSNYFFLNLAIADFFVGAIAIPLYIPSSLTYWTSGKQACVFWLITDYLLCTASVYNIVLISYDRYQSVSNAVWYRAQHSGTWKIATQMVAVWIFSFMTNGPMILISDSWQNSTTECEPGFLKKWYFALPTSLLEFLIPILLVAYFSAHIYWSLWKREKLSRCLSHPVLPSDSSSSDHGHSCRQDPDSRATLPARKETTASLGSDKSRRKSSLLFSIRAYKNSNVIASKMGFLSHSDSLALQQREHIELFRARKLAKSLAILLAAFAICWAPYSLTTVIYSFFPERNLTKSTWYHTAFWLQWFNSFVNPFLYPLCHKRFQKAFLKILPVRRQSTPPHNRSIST

[12] = Ratio of drug level in blood to plasma in human; format: ADME; conditions: blood and plasma
[13] = Half life in rat at 1 mg/kg, iv and 5 mg/kg, po; format: ADME, organism-based; conditions: in vivo
[14] = Plasma protein binding in rat at 1 mg/kg, iv and 5 mg/kg, po; format: ADME, organism-based; conditions: read-out: PPB (converted)
[15] = Volume of distribution in dog blood at 1 mg/kg, iv and 10 mg/kg, po; format: ADME, organism-based, Canis lupus familiaris
[16] = Oral bioavailability in rat at 5 mg/kg; format: ADME, organism-based; conditions: in vivo
[17] = Ratio of drug level in blood to plasma in dog at 1 mg/kg, iv and 10 mg/kg, po; format: ADME, organism-based, Canis lupus familiaris
[18] = Displacement of [3H]-histamine from dog H4R expressed in HEK293T cells; format: cell-based, Canis lupus familiaris; conditions: hek-293t
[19] = target: Histamine H4 receptor (Rattus norvegicus, UniProt Q91ZY1); test: Displacement of [3H]-histamine from rat H4R expressed in HEK293T cells; format: cell-based, HEK-293T
Chain of Histamine H4 receptor (Rattus norvegicus, UniProt Q91ZY1) (Q91ZY1 whole entry): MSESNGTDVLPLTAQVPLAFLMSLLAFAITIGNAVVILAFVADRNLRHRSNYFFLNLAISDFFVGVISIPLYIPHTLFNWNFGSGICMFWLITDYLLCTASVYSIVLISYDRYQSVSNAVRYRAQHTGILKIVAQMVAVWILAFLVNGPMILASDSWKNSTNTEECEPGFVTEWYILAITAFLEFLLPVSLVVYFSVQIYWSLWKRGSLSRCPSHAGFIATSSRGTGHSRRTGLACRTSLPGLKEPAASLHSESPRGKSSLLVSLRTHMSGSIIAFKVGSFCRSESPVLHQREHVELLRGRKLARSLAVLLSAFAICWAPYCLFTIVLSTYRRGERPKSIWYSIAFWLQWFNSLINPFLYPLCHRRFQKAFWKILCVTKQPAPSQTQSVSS

[20] = target: T3, Histamine H4 receptor (Mus musculus, UniProt Q91ZY2); test: Displacement of [3H]-histamine from mouse H4R expressed in HEK293T cells; format: cell-based, HEK-293T
T3 sequence (Q91ZY2 whole entry): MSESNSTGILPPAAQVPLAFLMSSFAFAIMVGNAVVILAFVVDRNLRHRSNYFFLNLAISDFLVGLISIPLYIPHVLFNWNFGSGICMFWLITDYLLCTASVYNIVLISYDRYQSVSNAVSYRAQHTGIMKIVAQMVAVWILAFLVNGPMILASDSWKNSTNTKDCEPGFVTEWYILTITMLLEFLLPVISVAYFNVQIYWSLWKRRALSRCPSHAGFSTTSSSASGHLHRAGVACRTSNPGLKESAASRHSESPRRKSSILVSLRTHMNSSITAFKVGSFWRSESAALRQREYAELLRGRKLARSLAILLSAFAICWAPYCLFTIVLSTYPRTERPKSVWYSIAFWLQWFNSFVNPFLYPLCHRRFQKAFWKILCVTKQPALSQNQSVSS

[21] = Half life in dog at 1 mg/kg, iv and 10 mg/kg, po; format: ADME, organism-based, Canis lupus familiaris; conditions: in vivo
[22] = target: T1, Histamine H4 receptor; test: Antagonist activity at H4R in human eosinophils assessed as inhibition of histamine-induced actin polymerisation; format: functional
[23] = tested on: Plasma; test: Plasma protein binding in dog at 1 mg/kg, iv and 10 mg/kg, po; format: ADME, organism-based, Canis lupus familiaris; conditions: in vivo
[24] = Volume of distribution in rat blood at 1 mg/kg, iv and 5 mg/kg, po; format: ADME, organism-based
[25] = tested on: HEK-293T; test: Inverse agonist activity at macaque H4R expressed in HEK293T cells assessed as reversal of forskolin-induced cAMP production by CRE-beta-lactamase reporter gene assay; format: functional, cell-based; conditions: Macaca mulatta
[26] = target: T1, Histamine H4 receptor; test: Displacement of [3H]-histamine from human H4R expressed in HEK293T cells; format: cell-based, HEK-293T
[27] = Displacement of [3H]-histamine from macaque H4R expressed in HEK293T cells; format: cell-based, Macaca mulatta; conditions: hek-293t
[28] = Blood clearance in rat at 1 mg/kg, iv and 5 mg/kg, po; format: ADME, organism-based
[29] = Metabolic stability in human liver microsomes; format: ADME, Microsome; conditions: read-out: Stability
[30] = target: T1, Histamine H4 receptor; test: Antagonist activity at H4R in human eosinophils assessed as inhibition of histamine-induced CD11b upregulation; format: functional
[31] = target: Histamine H4 receptor (Rattus norvegicus) (UniProt Q91ZY1); test: Partial agonist activity at rat H4R expressed in HEK293T cells assessed as reversal of forskolin-induced cAMP production by CRE-beta-lactamase reporter gene assay; format: functional, cell-based; conditions: HEK-293T
Chain of Histamine H4 receptor (Rattus norvegicus) (Q91ZY1 whole entry): as the sequence (Q91ZY1 whole entry) above

[32] = tested on: Rattus norvegicus; test: Toxicity in po dosed rat assessed as decrease in erythropoiesis for 4 days; format: organism-based, Erythrocyte; conditions: in vivo, 96 h
[33] = tested on: Rattus norvegicus; test: Toxicity in po dosed rat assessed as lymphoid depletion from gut for 4 days; format: organism-based; conditions: in vivo, 96 h
[34] = tested on: Rattus norvegicus; test: Toxicity in po dosed rat assessed as lymphoid depletion from spleen for 4 days; format: organism-based; conditions: in vivo, 96 h
[35] = Oral bioavailability in rat at 1 mg/kg; format: ADME, organism-based; conditions: in vivo
[36] = Volume of distribution in rat at 1 mg/kg, iv and 1 mg/kg, po; format: ADME, organism-based; conditions: in vivo
[37] = Clearance in rat at 1 mg/kg, iv and 1 mg/kg, po; format: ADME, organism-based; conditions: in vivo
[38] = tested on: Rattus norvegicus; test: Induction of pro-inflammatory response in rat dosed orally for 4 days; format: functional, organism-based
[39] = tested on: Rattus norvegicus; test: Toxicity in po dosed rat assessed as lymphoid depletion from thymus for 4 days; format: organism-based; conditions: in vivo, 96 h
[40] = tested on: Rattus norvegicus; test: Toxicity in po dosed rat assessed as decrease in reticulocyte counts for 4 days; format: organism-based; conditions: in vivo, 96 h
[41] = Half life in rat at 1 mg/kg, iv and 1 mg/kg, po; format: ADME, organism-based; conditions: in vivo
[42] = tested on: HEK-293T; test: Agonist activity at dog H4R expressed in HEK293T cells assessed as reversal of forskolin-induced cAMP production by CRE-beta-lactamase reporter gene assay; format: functional, cell-based; conditions: Canis lupus familiaris
[43] = target: T4, Histamine H4 receptor (Cavia porcellus) (UniProt Q91ZY3); test: Agonist activity at guinea pig H4R expressed in HEK293T cells assessed as reversal of forskolin-induced cAMP production by CRE-beta-lactamase reporter gene assay; format: functional, cell-based; conditions: HEK-293T
T4 sequence (whole entry): T2 sequence (Q91ZY3 whole entry)

[44] = tested on: HEK-293T; test: Agonist activity at macaque H4R expressed in HEK293T cells assessed as reversal of forskolin-induced cAMP production by CRE-beta-lactamase reporter gene assay; format: functional, cell-based; conditions: Macaca mulatta
[45] = tested on: Liver microsomes; test: Metabolic stability in human liver microsomes assessed as reactive metabolite generation; format: ADME, Microsome
[46] = tested on: Rattus norvegicus; test: Toxicity in rat assessed as vacuolation at high dose, po for 7 days; format: organism-based; conditions: in vivo, 168 h
[47] = tested on: Rattus norvegicus; test: Toxicity in rat assessed as bone marrow cytology changes at high dose, po for 7 days; format: organism-based; conditions: in vivo, 168 h

T1 sequence (Q9H3N8 whole entry): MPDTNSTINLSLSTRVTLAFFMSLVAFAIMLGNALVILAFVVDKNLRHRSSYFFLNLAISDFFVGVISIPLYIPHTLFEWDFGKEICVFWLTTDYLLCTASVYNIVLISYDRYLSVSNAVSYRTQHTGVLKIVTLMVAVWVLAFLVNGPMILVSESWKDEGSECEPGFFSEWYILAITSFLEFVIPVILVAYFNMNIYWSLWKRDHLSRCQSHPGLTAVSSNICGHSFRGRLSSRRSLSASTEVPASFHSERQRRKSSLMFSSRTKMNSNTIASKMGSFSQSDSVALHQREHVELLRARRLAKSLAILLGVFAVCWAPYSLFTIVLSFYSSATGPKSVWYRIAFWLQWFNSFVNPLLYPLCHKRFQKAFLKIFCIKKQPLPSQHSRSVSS

## CNC1CN(c2cc(N)nc(NCC3CC3)n2)C1
[1]
  Activity: Toxic
[2]
  Ki: 9070 nM
[3]
  Ki: > 2000 nM
[4]
  microsomal CLint: < 8.5 µL/min/mg

## CN[C@@H]1CCN(c2cc(NCC3CC3)nc(N)n2)C1 [ADRIFORANT]
[5]
  bioavailability: 39%
[6]
  clearance: 7 mL/min/kg
[7]
  fraction unbound: 0.84
[8]
  logD: -0.1
[9]
  blood plasma ratio: 2
[10]
  Activity: Active
[11]
  Ki: 123 nM
[12]
  blood plasma ratio: 3
[2]
  Ki: 2.4 nM
[13]
  half-life: 7 h
[14]
  fraction unbound: 0.81
[15]
  Vd: 14 L/kg
[16]
  bioavailability: 62%
[3]
  Ki: 1.56 nM
[4]
  microsomal CLint: < 8.5 µL/min/mg
[17]
  blood plasma ratio: 1
[18]
  pKi: 5.79
[19]
  Ki: 12.3 nM
[20]
  Ki: 20.9 nM
[21]
  half-life: 24 h
[22]
  IC50: 1.3 nM
[23]
  PPB: 0%
[24]
  Vd: 18 L/kg
[25]
  Activity: Active
[26]
  Ki: 6.17 nM
[27]
  pKi: 7.81
[28]
  clearance: 29 mL/min/kg
[29]
  microsomal CLint: < 7 µL/min/mg
[30]
  IC50: 4.9 nM
[31]
  Activity: Active

## CN1C[C@@H]2CN(C(=O)c3nc4cc(F)c(F)cc4[nH]3)C[C@@H]2C1
[32]
  Activity: Toxic
[33]
  Activity: Dose-dependent effect
[34]
  Activity: Dose-dependent effect
[35]
  bioavailability: 50%
[2]
  Ki: 128 nM
[36]
  Vd: 4.1 L/kg
[3]
  Ki: 53 nM
[37]
  clearance: 59 mL/min/kg
[4]
  microsomal CLint: 10 µL/min/mg
[38]
  Activity: Active
[39]
  Activity: Dose-dependent effect
[40]
  Activity: Toxic
[41]
  half-life: 0.8 h
[29]
  microsomal CLint: < 7 µL/min/mg

## CN1CCN(C(=O)c2cc3cc(Cl)ccc3[nH]2)CC1 [JNJ-7777120]
[42]
  Activity: Active
[8]
  logD: 2.6
[4]
  microsomal CLint: 61 µL/min/mg
[18]
  pKi: 6.89
[43]
  Activity: Active
[27]
  pKi: 7.17
[29]
  microsomal CLint: 28 µL/min/mg
[44]
  Activity: Active

## CN1C[C@@H]2CN(C(=O)c3cc4cc(Cl)ccc4[nH]3)C[C@@H]2C1
[3]
  Ki: 27 nM
[4]
  microsomal CLint: 36 µL/min/mg
[45]
  Stability: Unstable
[29]
  microsomal CLint: 7 µL/min/mg

## CNC1CN(c2cc(NCc3cccc(F)c3)nc(N)n2)C1
[2]
  Ki: 18 nM
[3]
  Ki: 13 nM
[4]
  microsomal CLint: < 8.5 µL/min/mg
[46]
  Activity: Toxic
[47]
  Activity: Toxic
